Here are results for 26 compounds from US6498159B1, “Phthalazine derivatives and remedies for erectile dysfunction” (Eisai Co., Ltd., priority 1998, dated 2002).

The target in the experiment is PDE5 (Sus scrofa, UniProt A0A287B475). Kind of experiment: Inhibitory action on the enzyme cGMP-PDE obtained from porcine platelets. The class given is biochemical. As to conditions: 1 μM cGMP substrate, 1 mM EGTA, read-out: PDE 5 IC50. As for the experimental part:
1) Inhibitory Action on the Enzyme cGMP-PDE Obtained from Porcine Platelets
The inhibitory activity of a test compound on the enzyme cGMP-PDE prepared from porcine platelets was determined by adding a solution of the test compound dissolved in DMSO to a reaction solution, where 1 μM cGMP was used as the substrate in the presence of 1 mM EGTA in accordance with a method of Tompson et al. The final concentration of DMSO in the reaction solution was 1% or less. Preparation of cGMP-PDE was conducted as follows. Porcine platelets were added to buffer A (20 mM Tris/HCl, 2 mM magnesium acetate, 10 mM 2-mercaptoethanol, 0.1 mM EGTA; pH 7.4), and then sonicated. The resulting suspension was centrifuged at 100,000×g for 60 min, and the resulting supernatant was subjected to a column (DEAE-Toyopearl 650S produced by Tosoh, Tokyo, Japan). After the column was washed with buffer A, the enzyme was eluted with a gradient of from 0.075 to 0.25 M NaCl in buffer A to give a CGMP-PDE fraction. The resulting fraction was dialyzed, concentrated and stored.

Counter-ions that a name gives are not always drawn.

Usually IC50 stands for the concentration that inhibits the measured activity by half.

In the case of `COc1ccc(CNc2nnc(-c3cccnc3)c3ccc(C#N)cc23)cc1Cl` [Example 1, 4-(3-Chloro-4-methoxybenzyl)amino-6-cyano-1-(3-pyridyl)phthalazine Dihydrochloride], the IC50 is 0.78 nM. As for `COc1ccc(CNc2nnc(-c3ccccn3)c3ccc(C#N)cc23)cc1Cl` [Example 2, 4-(3-Chloro-4-methoxybenzyl)amino-6-cyano-1-(2-pyridyl)phthalazine Dihydrochloride], the figure is 0.3 nM. As for `COc1ccc(CNc2nnc(N3CCC(C#N)CC3)c3ccc(C#N)cc23)cc1Cl` [Example 3, 4-(3-Chloro-4-methoxybenzyl)amino-6-cyano-1-(4-cyanopiperidino)phthalazine Hydrochloride], the figure is 1.1 nM; as for `COc1ccc(CCNc2nnc(N3CCC(C#N)CC3)c3ccc(C#N)cc23)cc1Cl` [Example 4, 4-(3-Chloro-4-methoxyphenethyl)amino-6-cyano-1-(4-cyanopiperidino)phthalazine Hydrochloride], 0.51 nM. As for `COc1ccc(CNc2nnc(N3CCC(N)CC3)c3ccc(C#N)cc23)cc1Cl` [Example 5, 1-(4-Aminopiperidino)-4-(3-chloro-4-methoxybenzyl)amino-6-cyanophthalazine Dihydrochloride], the IC50 stood at 0.051 nM. As for `COc1ccc(CNc2nnc(N3CCC(O)(CO)CC3)c3ccc(C#N)cc23)cc1Cl` [Example 6, 4-(3-Chloro-4-methoxybenzyl)amino-6-cyano-1-[4-hydroxy-4-(hydroxymethyl)piperidino]phthalazine Hydrochloride], the figure is 0.98 nM; as for `COc1ccc(CNc2nnc(N3CCC4(CC3)COC(=O)C4)c3ccc(C#N)cc23)cc1Cl` [Example 11, 4-[(3-Chloro-4-methoxybenzyl)amino]-1-(3-oxo-2-oxa-8-azaspiro[4.5]dece-8-yl)-6-phthalazine Carbonitrile], 0.68 nM; as for `COc1ccc(CNc2nnc(N3CCC4(CC3)CC(=O)C4)c3ccc(C#N)cc23)cc1Cl` [Example 12, 4-[(3-Chloro-4-methoxybenzyl)amino]-1-(2-oxo-7-azaspiro[3.5]non-7-yl)-6-phthalazine Carbonitrile], 0.54 nM. Consider `COc1ccc(CNc2nnc(C#CC(C)(C)N)c3ccc(C#N)cc23)cc1Cl` [Example 25, 1-(3-Amino-3-methyl-1-butynyl)-4-[(3-chloro-4-methoxybenzyl)amino]-6-phthalazinecarbonitrile Hydrochloride], for which the IC50 is 0.16 nM.

As to `COc1ccc(CNc2nnc(N3CCC(F)(CO)CC3)c3ccc(C#N)cc23)cc1Cl` [Example 43, 4-[(3-Chloro-4-methoxybenzyl)amino]-1-[4-fluoro-4-(hydroxymethyl)piperidino]-6-phthalazinecarbonitrile Hydrochloride], the IC50 came out at 0.23 nM.

Take `COc1ccc(CNc2nnc(N3CCC(=NO)CC3)c3ccc(C#N)cc23)cc1Cl` [Example 50, 4-[(3-Chloro-4-methoxybenzyl)amino]-1-(4-hydroxyiminopiperidino)-6-phthalazinecarbonitrile Hydrochloride]: the 50% inhibitory concentration (IC50) amounted to 0.24 nM. As to `COc1ccc(CNc2nnc(N3[C@@H]4CC[C@H]3C[C@@H](O)C4)c3ccc(C#N)cc23)cc1Cl` [Example 52, (endo)-4-[(3-Chloro-4-methoxybenzyl)amino]-1-(3-hydroxy-8-azabicyclo[3.2.1]oct-8-yl)-6-phthalazinecarbonitrile Hydrochloride], the IC50 was determined as 0.2 nM.

As to `COc1ccc(CNc2nnc(N3CCC(O)CC3)c3ccc(C#N)cc23)cc1I` [Example 76, 1-(4-Hydroxypiperidino)-4-[(3-iodo-4-methoxybenzyl)amino]-6-phthalazinecarbonitrile Hydrochloride], the IC50 turned out to be 0.13 nM. As for `COc1ccc(CNc2nnc(N3CC[C@H](CO)C3)c3ccc(C#N)cc23)cc1Br` [Example 79, 4-[(3-Bromo-4-methoxybenzyl)amino]-1-[(3S)-3-(hydroxymethyl)tetrahydro-1H-1-pyrrolyl]-6-phthalazinecarbonitrile Hydrochloride], the figure is 0.27 nM; as for `COc1ccc(CNc2nnc(N3CCC(CO)CC3)c3ccc(C#N)cc23)cc1Br` [Example 84, 4-[(3-Bromo-4-methoxybenzyl)amino]-1-[4-(hydroxymethyl)piperidino]-6-phthalazinecarbonitrile Hydrochloride], 0.93 nM; as for `COc1ccc(CNc2nnc(N3[C@@H]4CC[C@H]3C[C@@H](O)C4)c3ccc(C#N)cc23)cc1Br` [Example 85, (endo)-4-[(3-Bromo-4-methoxybenzyl)amino]-1-(3-hydroxy-8-azabicyclo[3.2.1]octo-8-yl)-6-phthalazine Carbonitrile], 0.12 nM.

Regarding `COc1ccc(CNc2nnc(N3CCC(O)CC3)c3ccc(-n4cccn4)cc23)cc1Cl` [Example 105, 1-[4-[(3-Chloro-4-methoxybenzyl)amino]-6-(1H-1-pyrazolyl)-1-phthalazinyl]-4-piperidinol Hydrochloride], the concentration for half-maximal inhibition (IC50) was determined as 0.1 nM. Regarding `CO/N=C/c1ccc2c(N3CCC(O)CC3)nnc(NCc3ccc(OC)c(Cl)c3)c2c1` [Example 110, 4-[(3-Chloro-4-methoxybenzyl)amino]-1-(4-hydroxypiperidino)-6-phthalazinecarbaldehyde O6-Methyloxime Hydrochloride], the IC50 was found to be 0.66 nM. With `COc1ccc(CNc2nnc(N3CCC[C@@H](O)C3)c3ccc(C#N)cc23)cc1Cl` [Production Example 1, 4-(3-Chloro-4-methoxybenzyl)amino-6-cyano-1-[(3R)-3-hydroxypiperidino]phthalazine Hydrochloride], the IC50 was 0.09 nM. As for `COc1ccc(CNc2nnc(N3CCC[C@H]3CO)c3ccc(C#N)cc23)cc1Cl` [Production Example 3, 4-(3-Chloro-4-methoxybenzyl)amino-6-cyano-1-[(2S)-2-hydroxymethylpyrrolidino]phthalazine Hydrochloride], the figure is 0.72 nM. Take `COc1ccc(CNc2nnc(N3CCCC(CO)C3)c3ccc(C#N)cc23)cc1Cl` (centres unmarked) [Production Example 4, 4-(3-Chloro-4-methoxybenzyl)amino-6-cyano-1-(3-hydroxymethylpiperidino)phthalazine Hydrochloride]: the IC50 came to 0.19 nM. The value for `COc1ccc(CCNc2nnc(N3CCCC(CO)C3)c3ccc(C#N)cc23)cc1Cl` (centres unmarked) [Production Example 5, 4-(3-Chloro-4-methoxyphenethyl)amino-6-cyano-1-(3-hydroxymethylpiperidino)phthalazine Hydrochloride] was 0.23 nM. As for `COc1ccc(CCNc2nnc(N3CCC(CO)CC3)c3ccc(C#N)cc23)cc1Cl` [Production Example 6, 4-(3-Chloro-4-methoxyphenethyl)amino-6-cyano-1-(4-hydroxymethylpiperidino)phthalazine], the figure is 0.5 nM. The value for `COc1ccc(CNc2nnc(N(C)Cc3ccccn3)c3ccc(C#N)cc23)cc1Cl` [Production Example 7, 4-(3-Chloro-4-methoxybenzyl)amino-6-cyano-1-[methyl(2-pyridylmethyl)amino]phthalazine Dihydrochloride] was 0.03 nM; that for `COc1ccc(CNc2nnc(N(C)CCc3ccccn3)c3ccc(C#N)cc23)cc1Cl` [Production Example 8, 4-(3-Chloro-4-methoxybenzyl)amino-6-cyano-1-{N-methyl-[2-(2-pyridyl)ethyl]amino}phthalazine Dihydrochloride] was 0.47 nM. Regarding `COc1ccc(CNc2nnc(N3CCC(O)C(C)C3)c3ccc(C#N)cc23)cc1Cl` (centres unmarked) [Production Example 11, 4-[(3-Chloro-4-methoxybenzyl)amino]-1-(4-hydroxy-3-methylpiperidino)-6-phthalazinecarbonitrile Hydrochloride], the IC50 came out at 0.24 nM.
